From patent US20230069886A1, “AROMATIC SULPHONAMIDES DERIVATIVES THAT INHIBITS PDI A3, THEIR SYNTHESIS AND USE” (Uniwersytet Jagiellonski, priority 2020, published 2023) come the findings set out here.

A value given as a limit tells only on which side of the number the result lay.

Usually IC50 stands for the midpoint of a concentration-inhibition curve. For orientation: melting point means the temperature of the solid-liquid transition.

One series deals with T1, PDI A3 (Homo sapiens, UniProt P30101).
T1 construct: purchased Mybiosource; host or cells: E. coli
T1 sequence (P30101 25-505): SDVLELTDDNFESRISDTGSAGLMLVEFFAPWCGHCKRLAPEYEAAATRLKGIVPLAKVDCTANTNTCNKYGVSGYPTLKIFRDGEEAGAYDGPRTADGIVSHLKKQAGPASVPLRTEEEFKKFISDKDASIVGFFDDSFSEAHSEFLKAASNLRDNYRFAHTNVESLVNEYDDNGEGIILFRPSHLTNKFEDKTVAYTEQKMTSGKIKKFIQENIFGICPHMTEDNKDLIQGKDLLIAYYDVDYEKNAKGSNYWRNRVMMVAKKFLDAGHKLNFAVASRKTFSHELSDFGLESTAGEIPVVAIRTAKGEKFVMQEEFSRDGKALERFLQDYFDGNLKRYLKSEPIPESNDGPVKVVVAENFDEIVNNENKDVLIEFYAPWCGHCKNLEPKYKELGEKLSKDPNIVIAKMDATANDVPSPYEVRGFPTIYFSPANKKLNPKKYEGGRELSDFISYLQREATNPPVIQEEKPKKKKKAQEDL
Nature of the series: PDI A3 inhibition, insulin turbidimetric assay. It is filed as biochemical. To be noted: 10 ug/ml PDI A3, incubated 60 min at 37° C., turbidity at 650 nm; read-out: Inhibition of PDI A3 (EC 50). Here is the method:
The inhibitory effects compounds of invention on activity of PDIA3 was assess based on the insulin turbidimetric assay. Enzymatic activity of PDIA3 was confirmed by measuring the turbidity increase at 650 nm due to insulin reduction. The assay mixture was prepared by addition 10 ug/ml PDI A3 (E. coli recombinant protein; Mybiosource), […] phosphate buffer (pH7.6), 1 mM EDTA, 0.087 mM DTT and with or without tested compound and was incubated for 60 min, at 37° C. Reaction was started by addition of insulin and DTT. Final concentration of insulin and DTT in assay mixture were 0.15 mMv and 0.174 mMv, respectively. Turbidity was detected at 650 nm against reference samples without PDJs. The measurements were performed at 650 nm using 120-s recordings.

The subject of a further series is MCF-7. Nature of the series: MTT antiproliferative assay, 48 h, MCF-7. The following applies: Homo sapiens, MCF7, 48-hour exposition, read-out: Cytotoxicity, IC50, μM MCF-7. It counts as cell-based, human. Here is the method: Anticancer activity of compounds of invention, PDI A3-inhibitors has been tested in vitro in classical antiproliferative assay in various cancer cells lines. Monolayer tumor cell lines MDA-MB-231 (human mammary breast adenocarcinoma), MCF-7 (human breast adenocarcinoma, estrogen-positive), HT-1080 (human fibrosarcoma) and Caco-2 (human colon adenocarcinoma) were cultured in standard medium DMEM (Dulbecco's modified Eagle's medium) (“Sigma”) supplemented with 10% foetal bovine serum (“Sigma”). About 2000-4000 cells per well (depending on line nature) were placed in 96-well plates and after 24 h compounds were added to the wells. Untreated cells were used as a control. The plates were incubated for 48 h, 37° C., 5% CO2. The number of surviving cells was determined using 3-(4,5-dimethylthiazol-2-yl)-2,5-diphenyltetrazolinium bromide (MTT). MTT-test: after incubating culture medium was removed and 200 μL fresh medium with 20 μL MTT (2 mg/mL in HBSS) was added in each well of the plate. After incubation (3 hr., 37° C., 5% CO2), the medium with MTT was removed and 200 μL DMSO were added at once to each sample. The samples were tested at 540 nm on Thermo Scientific Multiskan EX microplate photometer. The half-maximal inhibitory concentration (IC50) of each compound was calculated using Graph Pad Prism® 3.0.
A general note: Tetrazolium dyes change colour on reduction, which living cells bring about.

Turning to `CCCCCc1ccc(S(=O)(=O)N2CC2C(=O)OC)cc1` (stereo not shown) [Compound C-3281, Methyl 1-(4-pentylphenyl)sulfonylaziridine-2-carboxylate], at PDI A3, the EC50 was more than 200 µM.
With `CCCCCCc1ccc(S(=O)(=O)N2CC2C(=O)OC)cc1` (stereo not shown) [Compound C-3287, Methyl 1-(4-hexylphenyl)sulfonylaziridine-2-calboxylate], the 50% inhibitory concentration (IC50) in the series on MCF-7 was found to be 123 ± 17 µM.
In the case of `CN(C)C(=O)C1CN1S(=O)(=O)c1ccc2cc(N(C)C)ccc2c1` (stereo not shown) [Compound C-3398, 1-[[6-(Dimethylamino)-2-naphthyl]sulfonyl]-N,N-dimethylaziridine-2-carboxamide], the EC50 at PDI A3 was determined as 10.5 µM.
The same measure, in the same setting: to `NC(=O)C1CN1S(=O)(=O)c1ccccc1` (stereo not shown) [Compound C-3532, 1-(Benzenesulfonyl)aziridine-2-carboxamide] belongs 9.3 µM.
As to `COC(=O)C1CN1S(=O)(=O)c1ccc([N+](=O)[O-])cc1` (stereo not shown) [Compound C-3212, Methyl 1-(4-nitrophenyl)sulfonylaziridine-2-carboxylate], the melting point fell in the range of 106 to 108 °C. For the same compound, the EC50 on PDI A3 came to 32 µM.
For the compound `Cc1ccc(S(=O)(=O)N2CC2C#N)cc1` (stereo not shown) [Compound C-3314, 1-(p-Tolylsulfonyl)aziridine-2-carbonitrile], the EC50 on PDI A3 amounted to 24 µM.
`CN(C)C(=O)C1CN1S(=O)(=O)c1ccc(C2CCCCC2)cc1` (stereo not shown) [Compound C-3384, 1-(4-Cyclohexylphenyl)sulfonyl-N,N-dimethyl-aziridine-2-carboxamide]: the EC50 on PDI A3 was 11.7 µM.
The same measure, in the same setting: the same measure for `COC(=O)C1CN1S(=O)(=O)c1ccc(C)cc1` (stereo not shown) [Compound C-3161, Methyl 1-(p-tolylsulfonyl)aziridine-2-carboxylate]: 27 µM; for `CC(C)(C)c1ccc(S(=O)(=O)N2CC2C(N)=O)cc1` (stereo not shown) [Compound C-3591, 1-(4-tert-Butylphenyl)sulfonylaziridine-2-carboxamide]: 29 µM.
`COC(=O)C1CN1S(=O)(=O)c1cccnc1` (stereo not shown) [Compound C-3559, Methyl 1-(3-pyridylsulfonyl)aziridine-2-carboxylate]: on PDI A3, the EC50 amounted to 18.6 µM.
For the compound `COC(=O)C1CN1S(=O)(=O)c1ccc(C(C)(C)C)cc1` (stereo not shown) [Compound C-3290, Methyl 1-(4-tert-butylphenyl)sulfonylaziridine-2-carboxylate], the half-inhibitory concentration (IC50) with MCF-7 worked out at 29 ± 4 µM.
Turning to `COC(=O)C1CN1S(=O)(=O)c1cccc(C)c1` (stereo not shown) [Compound C-3303, Methyl 1-(m-tolylsulfonyl)aziridine-2-carboxylate], the EC50 on PDI A3 is more than 200 µM.
As to `CCOC(=O)C1CN1S(=O)(=O)c1ccc(C)cc1` (stereo not shown) [Compound C-3537, Ethyl 1-(p-tolylsulfonyl)aziridine-2-carboxylate], the EC50 at PDI A3 stood at 30 µM.
Still for that read-out and setting: the same measure for `COC(=O)[C@@H]1CN1S(=O)(=O)c1ccc(C)cc1` (stereo partly drawn) [Compound C-3535, Methyl (2S)-1-(p-tolylsulfonyl)aziridine-2-carboxylate]: 6.8 µM; for `CCCCCCCCCCCCc1ccc(S(=O)(=O)N2CC2C(=O)OC)cc1` (stereo not shown) [Compound C-3270, Methyl 1-(4-dodecylphenyl)sulfonylaziridine-2-carboxylate]: more than 200 µM.
`COC(=O)C1CN1S(=O)(=O)c1ccc2oc(=O)ccc2c1` (stereo not shown) [Compound C-3355, Methyl 1-(2-oxochromen-6-yl)sulfonylaziridine-2-carboxylate] had a melting point of 42 to 44 °C. For the same compound, the EC50 at PDI A3 came out at 61 µM.
In the case of `CN(C)C(=O)C1CN1S(=O)(=O)c1ccc(N(C)C)c2ccccc12` (stereo not shown) [Compound C-3385, 1-[[4-(Dimethylamino)-1-naphthyl]sulfonyl]-N,N-dimethylaziridine-2-carboxamide], at PDI A3, the EC50 was 11.1 µM.
Regarding `COC(=O)C1CN1S(=O)(=O)c1ccc(C)cc1F` (stereo not shown) [Compound C-3297, Methyl 1-(2-fluoro-4-methyl-phenyl)sulfonylaziridine-2-carboxylate], on PDI A3, the EC50 is more than 200 µM.
For the compound `CCCCCCc1ccc(S(=O)(=O)N2CC2C(=O)N2CCCC2)cc1` (stereo not shown) [Compound C-3511, [1-(4-Hexylphenyl)sulfonylaziridin-2-yl]-pyrrolidin-1-yl-methanone], the EC50 at PDI A3 stood at 102 µM.
As to `COC(=O)C1CN1S(=O)(=O)c1cccc(C(F)(F)F)c1` (stereo not shown) [Compound C-3305, Methyl 1-[3-(trifluoromethyl)phenyl]sulfonylaziridine-2-carboxylate], the EC50 on PDI A3 was more than 200 µM.
`COC(=O)C1CN1S(=O)(=O)c1ccc2[nH]c(=O)ccc2c1` (stereo not shown) [Compound C-3350, Methyl 1-[(2-oxo-1H-quinolin-6-yl)sulfonyl]aziridine-2-carboxylate] had a melting point of 139 to 141 °C. Further, the EC50 at PDI A3 worked out at 48 µM.
Consider `COC(=O)[C@H]1CN1S(=O)(=O)c1cccc2cc(N(C)C)ccc12` (stereo partly drawn) [Compound C-3570, Methyl (2R)-1-[[6-(dimethylamino)-1-naphthyl]sulfonyl]aziridine-2-carboxylate], for which the EC50 on PDI A3 was 68.4 µM.
On to `NC(=O)C1CN1S(=O)(=O)c1ccc(N)cc1` (stereo not shown) [Compound C-3218, 1-(4-Aminophenyl)sulfonylaziridine-2-carboxamide], for which the melting point fell in the range of 139 to 141 °C.
As to `CC(=O)C1CN1S(=O)(=O)c1ccc(C)cc1` (stereo not shown) [Compound C-3263, 1-[1-(p-Tolylsulfonyl)aziridin-2-yl]ethanone], the EC50 at PDI A3 was 98 µM.
`NC(=O)C1CN1S(=O)(=O)c1cccnc1` (stereo not shown) [Compound C-3562, 1-(3-pyridylsulfonyl)aziridine-2-carboxamide]: the melting point lay in the range of 147 to 149 °C. Besides, at PDI A3, the EC50 came to 56 µM.
As for `CCCCCCc1ccc(S(=O)(=O)N2CC2C(=O)NC)cc1` (stereo not shown) [Compound C-3380, 1-(4-Hexylphenyl)sulfonyl-N-methyl-aziridine-2-carboxamide], at PDI A3, the EC50 is 37 µM.
For `COC(=O)C1CN1S(=O)(=O)c1cccc2ccccc12` (stereo not shown) [Compound C-3311, Methyl 1-(1-naphthylsulfonyl)aziridine-2-carboxylate], the EC50 on PDI A3 stood at 90 µM.
For the compound `Cc1ccc(S(=O)(=O)N2CC2C(N)=O)cc1` (stereo not shown) [Compound C-3220, 1-(p-Tolylsulfonyl)aziridine-2-carboxamide], the EC50 at PDI A3 came out at 22 µM.
On to `COC(=O)C1CN1S(=O)(=O)c1ccc(F)cc1F` (stereo not shown) [Compound C-3353, Methyl 1-(2,4-difluorophenyl)sulfonylaziridine-2-carboxylate], for which the EC50 at PDI A3 turned out to be 143 µM.
As for `CN(C)C(=O)C1CN1S(=O)(=O)c1ccc(N(C)C)cc1` (stereo not shown) [Compound C-3357, 1-[4-(Dimethylamino)phenyl]sulfonyl-N,N-dimethyl-aziridine-2-carboxamide], the EC50 at PDI A3 is more than 200 µM.
Turning to `CCCCc1ccc(S(=O)(=O)N2CC2C(C)=O)cc1` (stereo not shown) [Compound C-3272, 1-[1-(4-Butylphenyl)sulfonylaziridin-2-yl]ethanone], the EC50 on PDI A3 turned out to be 43 µM.
Regarding `CNc1ccc2cc(S(=O)(=O)N3CC3C(=O)OC)ccc2c1Cl` (stereo not shown) [Compound C-3393, Methyl 1-[[5-chloro-6-(methylamino)-2-naphthyl]sulfonyl]aziridine-2-carboxylate], the melting point is 170 to 172 °C. On PDI A3, the EC50 turned out to be 27 µM.
Consider `COC(=O)C1CN1S(=O)(=O)c1ccc(C(F)(F)F)cc1` (stereo not shown) [Compound C-3256, Methyl 1-[4-(trifluoromethyl)phenyl]sulfonylaziridine-2-carboxylate], for which the EC50 at PDI A3 is more than 200 µM.
In the case of `CN(C)C(=O)C1CN1S(=O)(=O)c1ccc(F)cc1F` (stereo not shown) [Compound C-3403, 1-(2,4-Difluorophenyl)sulfonyl-N,N-dimethyl-aziridine-2-carboxamide], the EC50 on PDI A3 worked out at 24 µM.
As for `COC(=O)[C@@H]1CN1S(=O)(=O)c1cccc2cc(N(C)C)ccc12` (stereo partly drawn) [Compound C-3548, Methyl (2S)-1-[[6-(dimethylamino)-1-naphthyl]sulfonyl]aziridine-2-carboxylate], the EC50 at PDI A3 was found to be 5.3 µM.
